Columns and labels:
ABUTH = assay: Pre-emergence herbicidal activity on ABUTH (velvetleaf); type: in vivo, Abutilon theophrasti
Summary of the method: (§1)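 Steps: sterilized fertilized topsoil potted; seeds sown, covered; compound (50:50 acetone/water dilution) applied to soil surface; 0.64 cm overhead irrigation; greenhouse 30/21 °C day/night; % inhibition vs untreated scored at ~14 d; GR80 calculated.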

SOLNI = assay: Pre-emergence herbicidal activity on SOLNI (black nightshade); type: in vivo, Solanum nigrum
Summary of the method: as §1

AMARE = assay: Pre-emergence herbicidal activity on AMARE (redroot pigweed); type: in vivo, Amaranthus retroflexus
Summary of the method: as §1

DATST = assay: Pre-emergence herbicidal activity on DATST (jimsonweed); type: in vivo, Datura stramonium
Summary of the method: as §1

CHEAL = assay: Pre-emergence herbicidal activity on CHEAL (common lambsquarters); type: in vivo, Chenopodium album
Summary of the method: as §1

CONAR = assay: Pre-emergence herbicidal activity on CONAR (field bindweed); type: in vivo, Convolvulus arvensis
Summary of the method: as §1

POROL = assay: Pre-emergence herbicidal activity on POROL (common purslane); type: in vivo, Portulaca oleracea
Summary of the method: as §1

CIRAR = assay: Pre-emergence herbicidal activity on CIRAR (canada thistle, seedling); type: in vivo, Cirsium arvense
Summary of the method: as §1

PANMI = assay: Pre-emergence herbicidal activity on PANMI (wild proso millet); type: in vivo, Panicum miliaceum
Summary of the method: as §1

SORHA = assay: Pre-emergence herbicidal activity on SORHA (johnsongrass, seedling); type: in vivo, Sorghum halepense
Summary of the method: as §1

SETFA = assay: Pre-emergence herbicidal activity on SETFA (giant foxtail); type: in vivo, Setaria faberi
Summary of the method: as §1

PANDI = assay: Pre-emergence herbicidal activity on PANDI (fall panicum); type: in vivo, Panicum dichotomiflorum
Summary of the method: as §1

BRAPP = assay: Pre-emergence herbicidal activity on BRAPP (broadleaf signalgrass); type: in vivo, Brachiaria platyphylla
Summary of the method: as §1

DIGSA = assay: Pre-emergence herbicidal activity on DIGSA (large crabgrass); type: in vivo, Digitaria sanguinalis
Summary of the method: as §1

[1] = system: monocotyledonous and dicotyledonous annual plant species; assay: Greenhouse pre-emergence test, all species of the test taken together; type: in vivo
From the text: All such uses, and the biological activity enabling such uses, are embraced by the term “herbicidal” herein. […] Where herbicidal activity was evident but 80% inhibition was not achieved at the highest rate tested (typically 1000 g/ha), an asterisk (*) is shown in the following tables. Herbicidal activity evident in the form of symptoms of phytotoxicity, in the absence of at least 80% inhibition at any rate, is indicated in the tables by “phyto”. A blank cell in the following tables indicates no herbicidal or phytotoxic response at any rate tested.
(§2) The pre-emergence tests were conducted by the following procedure. Topsoil was sieved to pass through a 1.27 cm screen. Fertilizer was added to the topsoil and the mixture was then sterilized by heating. The topsoil mixture was placed in a pot and compacted to a depth of 1.0 to 1.25 cm from the top of the pot. Seeds of each of several monocotyledonous and dicotyledonous annual plant species were placed on top of the soil. Additional soil was subsequently placed over the seeds to level-fill the pot. A known amount of each test compound dissolved or suspended in an appropriate organic solvent was diluted with a 50:50 mix of acetone and water and applied to the surface of the soil. After treatment the plants were placed in a greenhouse with a 30/21° C. day/night temperature regime where they received 0.64 cm of overhead irrigation. All subsequent watering consisted of a light overhead mist and/or subirrigation as needed for germination and growth.
Pre-emergence herbicidal activity of the compound of Example 5, a racemic mixture of R- and S-enantiomers of N,N′-(1,2-propanediylbis)-3-(trifluoromethyl) benzamide, was compared with that of the individual R- and S-enantiomers, the compounds of Examples 5a and 5b respectively. The procedure was exactly as described above. Rates tested were 1000, 650, 300, 200, 100, 65, 30 and 10 g/ha.
In a greenhouse pre-emergence test conducted according to the procedure described hereinabove, R—N,N′-(1,2-propanediylbis)-3-(trifluoromethyl)benzamide (the compound of Example 5a) was applied at 200 g/ha and acetochlor was applied at 100 g/ha, both individually and in combination.
In the same greenhouse pre-emergence test, R-2-fluoro-3-trifluoromethyl-N-[1-methyl-2-(3-trifluoromethyl)phenylcarbonylamino]ethylbenzamide (the compound of Example 13) was applied at 100 g/ha and acetochlor was applied at 100 g/ha, both individually and in combination.

ECHCG = assay: Pre-emergence herbicidal activity on ECHCG (barnyardgrass); type: in vivo, Echinochloa crus-galli; conditions: racemic mixture vs enantiomers test; rates tested 1000, 650, 300, 200, 100, 65, 30 and 10 g/ha; lowest rate with 80% or greater inhibition
Summary of the method: as §1

SORVU = assay: Pre-emergence herbicidal activity on SORVU (shattercane); type: in vivo, Sorghum vulgare; conditions: racemic mixture vs enantiomers test; rates tested 1000, 650, 300, 200, 100, 65, 30 and 10 g/ha; lowest rate with 80% or greater inhibition
From the text: All such uses, and the biological activity enabling such uses, are embraced by the term “herbicidal” herein. Tables 15 and 16 summarize results of tests conducted as described below to determine the pre-emergence herbicidal activity, in the form of a GR80 value, of illustrative compounds of this invention. […] Where herbicidal activity was evident but 80% inhibition was not achieved at the highest rate tested (typically 1000 g/ha), an asterisk (*) is shown in the following tables. Herbicidal activity evident in the form of symptoms of phytotoxicity, in the absence of at least 80% inhibition at any rate, is indicated in the tables by “phyto”. A blank cell in the following tables indicates no herbicidal or phytotoxic response at any rate tested.
as §2
Approximately 14 days after planting and treating, the plants were observed and herbicidal efficacy recorded as percent inhibition by comparison with untreated plants.
The plant species usually regarded as weeds which were utilized in the tests are identified in the tables below according to the following legend, in which “d” indicates a dicotyledonous species and “m” a monocotyledonous species. All monocotyledonous species included in the tests herein are grasses.

[2] = applied alone at 100 g/ha, greenhouse
[3] = pre-emergence application, acetochlor 100 g/ha alone
[4] = racemic mixture vs enantiomers test, rates tested 1000, 650, 300, 200, 100, 65, 30 and 10 g/ha, lowest rate with 80% or greater inhibition

SMILES: CCOCN(C(=O)CCl)c1c(C)cccc1CC [Acetochlor, acetochlor, reference compound]
- Percent control by pre-emergence application, ABUTH (ABUTH; [2]): 0%
- Percent control ABUTH (ABUTH; [3]): 0%
- Percent control by pre-emergence application, SOLNI (SOLNI; [2]): 75%
- Percent control SOLNI (SOLNI; [3]): 75%
- Percent control by pre-emergence application, AMARE (AMARE; [2]): 100%
- Percent control AMARE (AMARE; [3]): 100%
- Percent control by pre-emergence application, DATST (DATST; [2]): 33%
- Percent control DATST (DATST; [3]): 33%
- Percent control by pre-emergence application, CHEAL (CHEAL; [2]): 100%
- Percent control CHEAL (CHEAL; [3]): 100%
- Percent control by pre-emergence application, CONAR (CONAR; [2]): 23%
- Percent control CONAR (CONAR; [3]): 23%
- Percent control by pre-emergence application, POROL (POROL; [2]): 100%
- Percent control POROL (POROL; [3]): 100%
- Percent control by pre-emergence application, CIRAR (CIRAR; [2]): 100%
- Percent control CIRAR (CIRAR; [3]): 100%
- Percent control by pre-emergence application, PANMI (PANMI; [2]): 83%
- Percent control PANMI (PANMI; [3]): 83%
- Percent control by pre-emergence application, SORHA (SORHA; [2]): 83%
- Percent control SORHA (SORHA; [3]): 83%
- Percent control by pre-emergence application, SETFA (SETFA; [2]): 100%
- Percent control SETFA (SETFA; [3]): 100%
- Percent control by pre-emergence application, PANDI (PANDI; [2]): 100%
- Percent control PANDI (PANDI; [3]): 100%
- Percent control by pre-emergence application, BRAPP (BRAPP; [2]): 76%
- Percent control BRAPP (BRAPP; [3]): 76%
- Percent control by pre-emergence application, DIGSA (DIGSA; [2]): 100%
- Percent control DIGSA (DIGSA; [3]): 100%
- number of the 14 species showing >85% control ([1]; acetochlor alone at 100 g/ha): 7

SMILES: CC(CNC(=O)c1cccc(C(F)(F)F)c1)NC(=O)c1cccc(C(F)(F)F)c1 (stereo not shown) [Example 5b]
- Pre-emergence activity (GR80) ABUTH (ABUTH; [4]): [empty]
- Pre-emergence activity (GR80) SOLNI (SOLNI; [4]): [empty]
- Pre-emergence activity (GR80) AMARE (AMARE; [4]): [empty]
- Pre-emergence activity (GR80) DATST (DATST; [4]): [empty]
- Pre-emergence activity (GR80) CHEAL (CHEAL; [4]): [empty]
- Pre-emergence activity (GR80) CONAR (CONAR; [4]): [empty]
- Pre-emergence activity (GR80) PORAL (POROL; [4]): [empty]
- Pre-emergence activity (GR80) CIRAR (CIRAR; [4]): [empty]
- Pre-emergence activity (GR80) ECHCG (ECHCG): [empty]
- Pre-emergence activity (GR80) PANMI (PANMI; [4]): [empty]
- Pre-emergence activity (GR80) SORHA (SORHA; [4]): [empty]
- Pre-emergence activity (GR80) SETFA (SETFA; [4]): [empty]
- Pre-emergence activity (GR80) PANDI (PANDI; [4]): [empty]
- Pre-emergence activity (GR80) SORVU (SORVU): [empty]
- Pre-emergence activity (GR80) BRAPP (BRAPP; [4]): [empty]
- Pre-emergence activity (GR80) DIGSA (DIGSA; [4]): [empty]
- pre-emergence herbicidal activity (in words) ([1]; rates 1000 to 10 g/ha, all species of Tables 19 and 20): completely inactive

From patent US20020052295A1, “Diacyl derivatives of propylene diamine having herbicidal activity” (priority 1999, published 2002)
